Values after ≈ are worked out from the molar mass of the structure shown. Read-outs that look alike come from different tables or passages of the source.
Legend:
S. aureus ATCC 25923 = assay: Minimum inhibitory concentration (MIC), microplate dilution; type: cell-based; conditions: Staphylococcus aureus, ATCC25923; Table I; Mueller-Hinton medium, 37° C., 24 h
Description: (§1) A positive control (1940 μl of culture medium+40 μl of DMSO+20 μl of the bacterial suspension) from a defrosted biological strain (the preservation of the biological strains is carried out at −80° C. in glycerol). The strains used are S. aureus ATCC 25923, E. coli ATCC 25922, P. aeruginosa ATCC 27853, C. albicans CIP 1180-79 and E. faecalis CIP 103015.
(§2) The microorganisms were handled under a hood in the laboratory of L2 type and, before any handling operation, a UV cycle was programmed and only sterile material was used. […] The chemical molecules to be tested were prepared in a DMSO/methanol (50/50) mixture at a concentration of 5 mg/ml.
(§3) After incubating for 24 h, the optical density was measured using a spectrophotometer at 600 nm by withdrawing 100 μl of the bacterial suspension diluted in 900 μl of the sterile culture medium. This test required the use of a 96-well plate and the necessary volume of the microbial suspension to be inoculated was calculated for an OD corresponding to a value equal to 0.01 in each well. In this plate, the first line corresponded to the negative control (195 μl of sterile culture medium in each well), the second line to the positive control (inoculated culture medium with the addition of 2% of DMSO), the third line was charged twice with bacterial suspension, 8 μl of product to be tested was placed in each well. Subsequently, cascade half dilution was carried out starting from this line.
(§4) The first column was used as inhibition control. A sterile filter was subsequently placed on the microplate, allowing the passage of gases but not of contaminants. The microplate was incubated at 37° C. in a humid atmosphere for 24 h.
(§5) NB: The medium used is the Mueller-Hinton (MH) medium for the bacteria. All the tests were carried out in duplicate.
(§6) After incubation, the filter was replaced with a transparent film and subsequently reading of OD was carried out in an IEMS plate spectrophotometer at 620 nm. A calculation of the minimum inhibitory concentration (MIC) was carried out.

P. aeruginosa ATCC 27853 = assay: as above; type: cell-based; conditions: Pseudomonas aeruginosa, ATCC27853; Table I; Mueller-Hinton medium, 37° C., 24 h
Description: as §1, §2, §3, §4, §5, §6

CHO-K1 cells = assay: WST-1 cytotoxicity test; type: cell-based, Chinese hamster; conditions: Cricetulus griseus, WST-1 test, 24 hours, concentration reducing cell viability by 50%
Description: The WST-1 test was used to measure the cytotoxic activity of the products. This is a colorimetric test which makes it possible to measure the viability and the degree of cell proliferation.
The WST-1 test was carried out on Chinese hamster ovary cells. The CHO-K1 cells (ATCC, USA) are kept cultured in McCoy's 5 A medium additivated with 10% of fetal calf serum, with 2 mM of L-glutamine and with a penicillin/streptomycin mixture (100 U/ml: 10 μg/ml). Incubating is carried out at 37° C. under an atmosphere enriched in CO2 (5%) and subculturing is carried out every two days.
The cells are transferred into 96-well plates (25 000 cells/ml) in complete McCoy's 5 A medium and are maintained at 37° C. for 24 h under a humid atmosphere enriched in CO2 (5%). Increasing concentrations of test products are added to the wells in duplicate tests and 8 growth controls containing the cells in the medium alone are included in each series of tests. After 24 hours at 37° C. (5% of CO2), the culture medium is removed, the cells are rinsed in phosphate buffer (PBS) and 50 μl of PBS containing 10% of WST-1 reactant are added to each well. After incubating at 37° C. for 20 minutes, the results are read by spectrophotometry at 450 nm.
The results are expressed in the form of dose-response relationships, modeled by a nonlinear regression analysis using the TableCurve software.

[1] = system: S. aureus Methicillin-resistant; assay: Minimum inhibitory concentration (MIC), microplate dilution; type: cell-based; conditions: Staphylococcus aureus
Description: (§7) A positive control (1940 μl of culture medium+40 μl of DMSO+20 μl of the bacterial suspension) from a defrosted biological strain (the preservation of the biological strains is carried out at −80° C. in glycerol).
as §2, §3, §4, §5, §6

E. coli ATCC 25922 = assay: as above; type: cell-based; conditions: Escherichia coli, ATCC25922
Description: as §7, §2, §3, §4, §5, §6

P. aeruginosa (PAO1) [2] = assay: Potentiating of doxycycline activity by aminosteroidal derivative; type: cell-based, Pseudomonas aeruginosa; conditions: Doxycycline concentration used 2 μg/ml, 37° C., 24 h
Description: (§8) This method requires the use of a 96-well plate; 100 μl of a liquid culture medium are deposited in each well and then inoculated with the microbial suspension prepared above. The necessary volume to be inoculated is calculated for an OD of 0.01, which corresponds to approximately 5×10^6 bacteria in each well. In this plate, the first line corresponds to a negative control (200 μl of sterile culture medium in each well), the second line to a positive control (100 μl of sterile culture medium+100 μl of a bacterial suspension), the third line contains 192 μl of culture medium; 8 μl of aminosteroidal product to be tested are placed in each well. Subsequently, cascade dilution is carried out starting from this line. 8 μl of a doxycycline solution (1 mg dissolved in 20 ml) are subsequently added to each well of lines 3 to 8, in order to obtain a final concentration of antibiotic of 2 μg/ml. 92 μl of bacterial suspension are subsequently added to lines 3 to 8. The results (the determination of the MIC (2 μg/ml of doxycycline) in the presence of X μg/ml of aminosteroidal derivative) are read after incubating at 37° C. for 24 h in a humid atmosphere. After incubating at 37° C. for 24 h, 40 μl of nitrotetrazolium iodide are added to each well, making it possible to reveal the presence of living bacteria by coloring the medium pink.
(§9) The use of low amounts of aminosteroidal derivatives makes it possible to restore (to reduce) the necessary concentration of antibiotic to kill the strain under consideration.

C. albicans = assay: Minimum inhibitory concentration (MIC), microplate dilution; type: cell-based, C. albicans CIP 1180-79; conditions: Candida albicans; Table I; 37° C., 24 h
Description: as §1, §2, §3, §4, §5, §6

P. aeruginosa (PAO1) [3] = assay: Potentiating of chloramphenicol activity by aminosteroidal derivative; type: cell-based, Pseudomonas aeruginosa; conditions: Chloramphenicol concentration used 4 μg/ml
Description: as §8, with “8 μl of a doxycycline solution (1 mg dissolved in 20 ml) are subsequently added to each well of lines 3 to 8, in order to obtain a final concentration of antibiotic of 2 μg/ml.” left out, “The results (the determination of the MIC (2 μg/ml of doxycycline) in the presence of X μg/ml of aminosteroidal derivative) are read after incubating at 37° C. for 24 h in a humid atmosphere.” left out
as §9

S. faecalis = assay: Minimum inhibitory concentration (MIC), microplate dilution; type: cell-based, E. faecalis CIP 103015; conditions: Enterococcus faecalis; Table I; Mueller-Hinton medium, 37° C., 24 h
Description: as §1, §2, §3, §4, §5, §6

P. aeruginosa (PAO1) [4] = assay: MIC of conventional antibiotics alone; type: cell-based; conditions: Pseudomonas aeruginosa
[5] = Table I, Mueller-Hinton medium, 37° C., 24 h
[6] = Table II, comparison with state of the art compounds
[7] = Table I, Mueller-Hinton medium, 37° C., 24 h, read-out: MIC E. coli ATCC 25922
[8] = Table II, comparison with state of the art compounds, read-out: MIC E. coli

MIC (P. aeruginosa (PAO1) [4]; antibiotic alone, Gram-negative strain of P. aeruginosa (PAO1), read-out: MIC) [µg/mL] | SMILES | MIC (S. aureus ATCC 25923) [µg/mL] | MIC (P. aeruginosa ATCC 27853) [µg/mL] | IC50 (CHO-K1 cells) [µM] | MIC [1, 5] [µg/mL] | MIC [1, 6] [µg/mL] | MIC (E. coli ATCC 25922; [7]) [µg/mL] | MIC (E. coli ATCC 25922; [8]) [µg/mL] | Concentration of compound necessary in order to restore the activity of the antibiotic under consideration: Doxycycline (P. aeruginosa (PAO1) [2]) [µg/mL] | MIC (C. albicans) [µg/mL] | Concentration of compound necessary in order to restore the activity of the antibiotic under consideration: Chloramphenicol (P. aeruginosa (PAO1) [3]) [µg/mL] | MIC (S. faecalis) [µg/mL] | MIC (P. aeruginosa (PAO1) [4]; PAO1) [µg/mL]
– | CC(C)CCC[C@@H](C)[C@H]1CCC2C3C(CC[C@@]21C)[C@@]1(C)CC[C@H](NCCCNCCCCNCCCN)C[C@@H]1C[C@H]3O (stereo partly drawn) [SA-1, 3β-Spermino-7α-hydroxy-5α-cholestane] | 4 (≈ 6.79 µM) | 32 (≈ 54.3 µM) | 15 | 2 (≈ 3.4 µM) | 2 (≈ 3.4 µM) | 16 (≈ 27.2 µM) | 16 (≈ 27.2 µM) | 4 | 2 (≈ 3.4 µM) | 16 | 2 (≈ 3.4 µM) | –
– | CC(C)CCC[C@@H](C)[C@H]1CCC2C3C(CC[C@@]21C)[C@@]1(C)CC[C@H](NCCCNCCCCNCCCN)C[C@@H]1C[C@@H]3O (stereo partly drawn) [SA-2, 3β-Spermino-7β-hydroxy-5α-cholestane] | 4 (≈ 6.79 µM) | 32 (≈ 54.3 µM) | 50 | 2 (≈ 3.4 µM) | 2 (≈ 3.4 µM) | 32 (≈ 54.3 µM) | 32 (≈ 54.3 µM) | 4 | 2 (≈ 3.4 µM) | 16 | 2 (≈ 3.4 µM) | –
– | CC(C)CCC[C@@H](C)[C@H]1CCC2C3C(CC[C@@]21C)[C@@]1(C)CC[C@H](NCCCNCCCN)C[C@@H]1C[C@@H]3O (stereo partly drawn) [SA-3, 3β-Norspermidino-7β-hydroxy-5α-cholestane] | 5 (≈ 9.65 µM) | 40 (≈ 77.2 µM) | 32 | 2.5 (≈ 4.83 µM) | 2.5 (≈ 4.83 µM) | 20 (≈ 38.6 µM) | 20 (≈ 38.6 µM) | 5 | 2.5 (≈ 4.83 µM) | 10 | 2.5 (≈ 4.83 µM) | –
– | CC(C)CCC[C@@H](C)[C@H]1CCC2C3C(CC[C@@]21C)[C@@]1(C)CC[C@H](NCCCN)C[C@@H]1C[C@H]3O (stereo partly drawn) [SA-4, 3β-(1,3-Diaminopropane)-7β-hydroxy-5α-cholestane] | 4 (≈ 8.68 µM) | 32 (≈ 69.4 µM) | 9 | 2 (≈ 4.34 µM) | 2 (≈ 4.34 µM) | 32 (≈ 69.4 µM) | 32 (≈ 69.4 µM) | – | 2 (≈ 4.34 µM) | – | 2 (≈ 4.34 µM) | –
– | CC(C)CCC[C@@H](C)[C@H]1CCC2C3C(CC[C@@]21C)[C@@]1(C)CC[C@H](NCCCCN)C[C@@H]1C[C@H]3O (stereo partly drawn) [SA-5, 3β-(1,4-Diaminobutane)-7β-hydroxy-5α-cholestane] | 4 (≈ 8.42 µM) | 32 (≈ 67.4 µM) | 15 | 4 (≈ 8.42 µM) | 4 (≈ 8.42 µM) | 32 (≈ 67.4 µM) | 32 (≈ 67.4 µM) | – | 4 (≈ 8.42 µM) | – | 4 (≈ 8.42 µM) | –
– | CC(C)CCC[C@@H](C)[C@H]1CCC2C3C(CC[C@@]21C)[C@@]1(C)CC[C@H](NCCN(CCN)CCN)C[C@@H]1C[C@H]3O (stereo partly drawn) [SA-6, 3β-(Tris(2-aminoethyl)amine)-7β-hydroxy-5α-cholestane] | 5 (≈ 9.38 µM) | 40 (≈ 75.1 µM) | 46 | 5 (≈ 9.38 µM) | 5 (≈ 9.38 µM) | 20 (≈ 37.5 µM) | 20 (≈ 37.5 µM) | 2.5 | 2.5 (≈ 4.69 µM) | 20 | 2.5 (≈ 4.69 µM) | –
– | CC(C)[C@@H](CC[C@@H](C)[C@H]1CC[C@H]2[C@@H]3[C@H](O)C[C@H]4C[C@@H](NCCCNCCCCN)CC[C@]4(C)[C@H]3CC[C@]12C)OS(=O)(=O)O [Squalamine, squalamine] | 4 (≈ 6.37 µM) | 20 (≈ 31.8 µM) | – | 4 (≈ 6.37 µM) | – | 12 (≈ 19.1 µM) | – | 1.75 | 2 (≈ 3.18 µM) | 1.75 | 4 (≈ 6.37 µM) | –
– | O=C(N[C@H](CO)[C@H](O)c1ccc([N+](=O)[O-])cc1)C(Cl)Cl [chloramphenicol] | – | – | – | – | – | – | – | – | – | – | – | 1020
40 | C[C@H]1c2cccc(O)c2C(=O)C2=C(O)[C@]3(O)C(=O)C(C(N)=O)=C(O)[C@@H](N(C)C)[C@@H]3[C@@H](O)[C@@H]21 [doxycycline] | – | – | – | – | – | – | – | – | – | – | – | –
